Tested on: 3T3L1 murine adipocyte line
Method: For example, a 2% (w/w) chitosan preparation obtained in example 1 (DA: 2%, Mw: 450000 g·mol^−1, Bioxis Pharmaceuticals S.A.S.) is diluted in a saline solution (NaCl at 300 mOsmol·l^−1) containing 1% (w/w) of acetic acid in a well (in 24-well plates) and then distributed over half of the other wells, dried, rinsed with PBS and then with the culture medium before cell seeding (3T3L1 murine adipocyte line ATCC CL-173™). When the cells are at confluence, differentiation is induced by adding a differentiation medium. The cells are then treated with a small dose of oleic acid (OA, 2.5 μM) for 6 hours. The cells are put back in a culture medium without OA until the next day in order to avoid any background noise from the OA. Proliferation is analysed by phase contrast microscopy (×20): the images are taken at various times (2 days and 5 days post seeding), at an identical position for each well. […] The marking is observed in fluorescence microscopy and quantification carried out by imaging. The imaging and the fluorescence quantification are carried out on a real-time imaging station. The controls are fixed before the induction of differentiation (confluence, DO).

chitosan
chitosan concentration with toxic effect on the 3T3L1 line: greater than or equal to 2% | morphology of the cells: aggressive or even toxic medium
